Data set [1] deals with crude extract from E. coli. Nature of the data set: In situ protease assay: TNFα variants in E. coli crude extract, SDS-PAGE and Western blot. As to conditions: sequence inserted into loop EF of human TNFα, procedure of Example 2. In kind it is in vitro ADME. The procedure: In order to test the protease resistance of selected, good binding PADRE analogues, their sequences were inserted by cloning techniques into a loop (loop EF) in human TNFα. Cell-free protein crude extract from E. coli expressing the modified TNFα molecules was prepared and proteolytic cleavage within the PADRE analogue sequences was analysed by SDS-PAGE followed by immunoblotting.
A synthetic cDNA encoding TNF (Y87S) was used as template. Oligonucleotides encoding PADRE or PADRE analogues were inserted into the template between A185 and E186 by PCR (cf. above). Resulting cDNAs were cloned into pET28b+(Novagen) and transformed into E. coli strain HMS 174. For recombinant expression, the resulting E. coli strains were cultured in fermentors in a defined medium at 37° C. Induction of recombinant expression was initiated by the addition of 1 mM of IPTG and temperature was lowered to 25° C. Cultures were harvested at 4, 8 or 24 h post-IPTG induction. TNFα variants were purified to >90% homogeneity by affinity chromatography using a TNFα specific monoclonal antibody as described in Nielsen et al., (2004), J Biol. Chem. 279:33593-33600. The purified TNFα variants were characterized by MALDI-TOF mass spectrometry to verify their identity and integrity.
In Situ Protease Assay: Analysis of the Protease Resistance of TNF-α Variants Using Western Blot
Aliquots (1 ml) of E. coli cell cultures, expressing the various TNF-α variants to be tested, were centrifuged (5000 g/5 min/5° C.) and the culture medium was discarded. Cell pellets were resuspended in 1 ml of 20 mM Bis-Tris, pH 6.0. Cell disruption was achieved by sonication (4×15 sec at an amplitude of 11 μm with 20 sec pauses between each sonication round). The resulting suspensions were centrifuged (20000 g/30 min/8° C.) and the supernatants (crude extracts) were transferred to fresh tubes. Crude extracts were then analysed for protein content using a Bradford protein assay (Biorad). Equivalent amounts of proteins were loaded onto 4-12% NuPAGE gels (Novex). After SDS-PAGE, proteins were transferred onto nitrocellulose membrane by semi-dry blotting. For immunoreaction, incubation with rabbit TNFα antiserum (1 h; dilution 1:10 000) and with horse radish peroxidase-conjugated secondary antibody (Dako P448) were carried out in Tris 50 mM, NaCl 150 mM, EDTA 5 mM, Igepal 0.1%, gelatine 0.5%. Detection was with ECL™ reagents (GE Healthcare).
A general note: In western blotting, separated proteins are transferred to a membrane and probed.

The target in data set [2] is HLA DRB1 *0405 (Homo sapiens, UniProt P01903+P01911, A100R/A169T/D86S/F76Y/I96L/K127E/L162R/M171V/N62H/P40V/Q125Y/R42H/S133A/S149N/S66Y/V115G/V209L/W38E). Nature of the data set: IC50nM to purified HLA | DRB1 *0405.
Data set [3] concerns the target HLA DRB1 *1101 (Homo sapiens, UniProt P01903+P01911, A100R/A169T/A87E/I96F/K41T/L162R/M171V/P40S/Q125H/Q178H/Q39Y/Q99D/R42S/S66Y/T262R/V115G/W38E). Nature of the data set: IC50nM to purified HLA | DRB1 *1101.
In data set [4] the target is HLA DRB1 *0301 (Homo sapiens, UniProt P01903+P01911, A100K/A102G/A103R/A169T/F55Y/I96L/K41T/L162R/M171V/P40S/Q125H/Q178H/Q39Y/R42S/S66N/T106N/T262R/W38E/Y61H). Nature of the data set: IC50nM to purified HLA | DRB1 *0301.
Data set [5] has as its target HLA DRB1 *0901 (Homo sapiens, UniProt P01903+P01911, A100R/A103E/D57H/D86V/F55Y/F60I/F76Y/I96F/K127E/L162R/M171V/P40D/Q125H/Q99R/R33Q/R42F/S133A/S66N/T210M/V115G/W38K/Y107V/Y59G/Y89S). Nature of the data set: IC50nM to purified HLA | DRB1 *0901.
Data set [6] concerns the target HLA DRB1 *0101 (Homo sapiens, UniProt P01903+P01911, A100R/D57E/F55L/F60I/F76Y/I96L/L162R/M171V/P40L/Q125E/R42F/V115G/Y59C). Nature of the data set: IC50nM to purified HLA | DRB1 *0101.
Data set [7] addresses HLA DRB1 *1302 (Homo sapiens, UniProt P01903+P01911, A100E/A169T/K41T/L162R/M171V/P40S/Q125H/Q178H/Q39Y/Q99D/R42S/S66N/T262R/V115G/W38E/Y61H). Nature of the data set: IC50nM to purified HLA | DRB1 *1302. The procedure:
(§1) Table printed on a drawing sheet, FIG. 1 (contd.)
Head of the field: IC50nM to purified HLA | DRB1 *1302
(§2) First copying reader's note: Continued from the preceding sheet of FIG. 1; decimal commas are used, the analog names give the substituted residues and positions in PADRE, and some values are printed in italics or bold and some SEQ ID NOs bold and underlined without a legend on this sheet.
Where the first naming reader finds the target: head: IC50nM to purified HLA | DRB1 *1302

In data set [8] the target is HLA DRB1 *0802 (Homo sapiens, UniProt P01903+P01911, A100R/A103L/A169T/F76Y/H45Y/I96F/K41T/L162R/M171V/P40S/Q125H/Q178H/Q39Y/Q99D/R218S/R42G/S66Y/V115G/W38E). Nature of the data set: IC50nM to purified HLA | DRB1 *0802.
Data set [9] has as its target HLA DRB5 *0101 (Homo sapiens, UniProt P01903+Q30154). Nature of the data set: IC50nM to purified HLA | DRB5 *0101. As for the experimental part: as §1
Head of the field: IC50nM to purified HLA | DRB5 *0101
as §2
Where the first naming reader finds the target: head: IC50nM to purified HLA | DRB5 *0101

In data set [10] the target is HLA DRB1 *0701 (Homo sapiens, UniProt P01903+P01911, A100R/A102G/A103Q/D57E/D86V/E43K/F76Y/K127E/L162R/M171V/P40G/Q125H/Q99D/R33Q/R42Y/R54Q/S133A/S66F/T210M/V115G/Y107V/Y59L/Y89S). Nature of the data set: IC50nM to purified HLA | DRB1 *0701. As for the experimental part:
as §1
(§3) Head of the field: IC50nM to purified HLA | DRB1 *0701
as §2
(§4) Where the first naming reader finds the target: head: IC50nM to purified HLA | DRB1 *0701

For data set [11], the target named is HLA DRB1 *0401 (Homo sapiens, UniProt P01903+P01911, A100K/A169T/F76Y/I96L/K127E/L162R/M171V/N62H/P40V/Q125Y/R42H/S133A/S149N/S66Y/V115G/V209L/W38E). Nature of the data set: IC50nM to purified HLA | DRB1 *0401. The procedure: as §1
(§5) Head of the field: IC50nM to purified HLA | DRB1 *0401
as §2
(§6) Where the first naming reader finds the target: head: IC50nM to purified HLA | DRB1 *0401

In data set [12] the target is purified HLA DRB1 *0404 (Homo sapiens, UniProt P01903+P01911, A100R/A169T/F76Y/I96L/K127E/L162R/M171V/N62H/P40V/Q125Y/R42H/S133A/S149N/S66Y/V209L/W38E). Nature of the data set: IC50nM to purified HLA | DRB1 *0404. As for the experimental part:
(§7) Table printed on a drawing sheet, FIG. 1
Head of the field: IC50nM to purified HLA | DRB1 *0404
(§8) First copying reader's note: The comma is the decimal sign and the point a thousands separator (e.g. 21.831); some values are printed bold or italic and some SEQ ID NOs underlined, with no legend on the sheet.
Where the first naming reader finds the target: head: IC50nM to purified HLA | DRB1 *0404

In data set [13] the target is purified HLA DRB1 *0802 (Homo sapiens, UniProt P01903+P01911, A100R/A103L/A169T/F76Y/H45Y/I96F/K41T/L162R/M171V/P40S/Q125H/Q178H/Q39Y/Q99D/R218S/R42G/S66Y/V115G/W38E). Nature of the data set: IC50nM to purified HLA | DRB1 *0802. As for the experimental part: as §7
Head of the field: IC50nM to purified HLA | DRB1 *0802
as §8
Where the first naming reader finds the target: head: IC50nM to purified HLA | DRB1 *0802

For data set [14], the target named is purified HLA DRB4 *0101 (Homo sapiens, UniProt P01903+P13762, G164S). Nature of the data set: IC50nM to purified HLA | DRB4 *0101. As for the experimental part:
as §7
Head of the field: IC50nM to purified HLA | DRB4 *0101
as §8
Where the first naming reader finds the target: head: IC50nM to purified HLA | DRB4 *0101

Data set [15] addresses purified HLA DRB1 *0301 (Homo sapiens, UniProt P01903+P01911, A100K/A102G/A103R/A169T/F55Y/I96L/K41T/L162R/M171V/P40S/Q125H/Q178H/Q39Y/R42S/S66N/T106N/T262R/W38E/Y61H). Nature of the data set: IC50nM to purified HLA | DRB1 *0301. The procedure: as §7
Head of the field: IC50nM to purified HLA | DRB1 *0301
as §8
Where the first naming reader finds the target: head: IC50nM to purified HLA | DRB1 *0301

Data set [16] deals with purified HLA DRB1 *0701 (Homo sapiens, UniProt P01903+P01911, A100R/A102G/A103Q/D57E/D86V/E43K/F76Y/K127E/L162R/M171V/P40G/Q125H/Q99D/R33Q/R42Y/R54Q/S133A/S66F/T210M/V115G/Y107V/Y59L/Y89S). Nature of the data set: IC50nM to purified HLA | DRB1 *0701. The procedure: as §7, §3, §8, §4
Data set [17] concerns the target purified HLA DRB1 *0401 (Homo sapiens, UniProt P01903+P01911, A100K/A169T/F76Y/I96L/K127E/L162R/M171V/N62H/P40V/Q125Y/R42H/S133A/S149N/S66Y/V115G/V209L/W38E). Nature of the data set: IC50nM to purified HLA | DRB1 *0401. As for the experimental part: as §7, §5, §8, §6
The target of data set [18] is purified HLA DRB1 *0101 (Homo sapiens, UniProt P01903+P01911, A100R/D57E/F55L/F60I/F76Y/I96L/L162R/M171V/P40L/Q125E/R42F/V115G/Y59C). Nature of the data set: IC50nM to purified HLA | DRB1 *0101. As for the experimental part: as §7
Head of the field: IC50nM to purified HLA | DRB1 *0101
as §8
Where the first naming reader finds the target: head: IC50nM to purified HLA | DRB1 *0101

For data set [19], the target named is purified HLA DRB1 *0405 (Homo sapiens, UniProt P01903+P01911, A100R/A169T/D86S/F76Y/I96L/K127E/L162R/M171V/N62H/P40V/Q125Y/R42H/S133A/S149N/S66Y/V115G/V209L/W38E). Nature of the data set: IC50nM to purified HLA | DRB1 *0405. As for the experimental part: as §7
Head of the field: IC50nM to purified HLA | DRB1 *0405
as §8
Where the first naming reader finds the target: head: IC50nM to purified HLA | DRB1 *0405

pIC50: −log10 of the molar value. Where no end group is shown, it is not given here.

Sequence of HLA DRB1 *1101 (P01903 26-254 limits assumed, other chains not shown): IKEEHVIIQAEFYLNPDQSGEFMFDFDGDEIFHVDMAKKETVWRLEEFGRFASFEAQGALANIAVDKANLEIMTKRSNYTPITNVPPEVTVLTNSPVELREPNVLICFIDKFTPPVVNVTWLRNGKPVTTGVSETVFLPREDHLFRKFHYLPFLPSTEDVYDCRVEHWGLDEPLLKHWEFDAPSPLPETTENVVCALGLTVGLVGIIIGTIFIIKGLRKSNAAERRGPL
Sequence of purified HLA DRB1 *0301 (P01903 26-254 limits assumed, other chains not shown): as above
Sequence of purified HLA DRB4 *0101 (P01903 26-254 limits assumed): as the sequence (P01903 26-254 limits assumed, other chains not shown) above
Sequence of purified HLA DRB4 *0101 (P13762 whole entry G164S): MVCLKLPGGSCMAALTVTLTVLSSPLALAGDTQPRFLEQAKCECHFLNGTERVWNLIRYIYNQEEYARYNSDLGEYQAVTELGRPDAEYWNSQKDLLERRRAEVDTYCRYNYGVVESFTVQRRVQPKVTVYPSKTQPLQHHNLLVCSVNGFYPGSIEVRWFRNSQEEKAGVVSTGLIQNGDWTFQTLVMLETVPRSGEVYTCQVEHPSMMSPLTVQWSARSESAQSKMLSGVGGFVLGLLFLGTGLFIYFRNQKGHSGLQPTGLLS
Sequence of HLA DRB1 *0301 (P01903 26-254 limits assumed, other chains not shown): as the sequence (P01903 26-254 limits assumed, other chains not shown) above
Sequence of HLA DRB1 *1302 (P01903 26-254 limits assumed, other chains not shown): as above

As usually defined, the pIC50 is −log10 of the IC50, conventionally taken in molar units. A low value points to a large IC50. Take AAAHFVAANTLHAAA [SEQ ID NO: 29]: the “protease resistance of PADRE analogue sequence” value in data set [1] was “increased resistance towards proteolytic degradation”. The pIC50 was 7.74 in data set [2]; 7.66 in data set [3]; 6.44 in data set [4]; 7.43 in data set [5]; 8.39 in data set [6]; 7.33 in data set [7]. The negative logarithm of the IC50 (pIC50) in data set [8] is 7.77; in [9], 7.48; in [10], 7.12; in [11], 8.35.

As for AAAYFVAAFTLHAAA [SEQ ID NO: 23], the negative-log IC50 (pIC50) in data set [12] is 9.17; in data set [13] it was 8.23; in [14], 7.09; in data set [15], 6.90; in [16], 7.11; in [17] it was 9.00. Also, the pIC50 in data set [18] is 8.47; in data set [19], 8.36. The “protease resistance of PADRE analogue sequence” value in [1] is given as “increased resistance towards proteolytic degradation”.

(Values after patent US9789181B2, “PAN-DR binding polypeptides and uses thereof” (Epimmune Inc., priority 2009, dated 2017).)
